Reference: PMC2248166, “Quantitative peptide binding motifs for 19 human and mouse MHC class I molecules derived using positional scanning combinatorial peptide libraries” (Immunome Research, 2008)
Where a SMILES comes first, the peptide text is derived from it.

Molecular target: HLA A*3201 (Homo sapiens, UniProt P04439, A270S/D101S/D185E/E176V/E277Q/F133L/G103R/G107R/G231S/H175R/I121M/I218V/I322F/K168Q/L105A/L300P/L318F/M331R/P208A/P217A/Q94H/R106L/R138Q/S129P/T104I/T323A/T345S/V100E/V321M/V358M)
Assay: biochemical
Assay type: binding

Compound	IC50
CC[C@H](C)[C@H](NC(=O)[C@H](CC(N)=O)NC(=O)[C@H](CCSC)NC(=O)[C@H](CCSC)NC(=O)[C@@H](N)Cc1ccc(O)cc1)C(=O)N[C@@H](Cc1ccc(O)cc1)C(=O)N[C@@H](CC(C)C)C(=O)N[C@@H](CC(N)=O)C(=O)N[C@@H](Cc1ccccc1)C(=O)O [3102.0446] (H-YMMNIYLNF-OH)	2.9 nM
CC[C@H](C)[C@H](NC(=O)[C@H](CCSC)NC(=O)[C@H](CC(=O)O)NC(=O)[C@H](CCSC)NC(=O)[C@@H](N)CC(C)C)C(=O)N[C@H](C(=O)N[C@@H](CC(C)C)C(=O)N[C@@H](CO)C(=O)N[C@@H](CC(C)C)C(=O)O)[C@@H](C)O [3102.0448] (H-LMDMITLSL-OH)	30 nM
CC[C@H](C)[C@H](NC(=O)[C@H](CO)NC(=O)[C@@H](NC(=O)[C@@H](NC(=O)[C@H](Cc1ccc(O)cc1)NC(=O)[C@H](CC(N)=O)NC(=O)[C@H](CO)NC(=O)[C@H](CC(C)C)NC(=O)[C@@H](N)Cc1c[nH]cn1)[C@@H](C)CC)C(C)C)C(=O)O [3102.0449] (H-HLSNYIVSI-OH)	0.99 nM
CC[C@H](C)[C@H](NC(=O)[C@@H](NC(=O)[C@H](CC(N)=O)NC(=O)[C@H](CO)NC(=O)[C@H](CC(N)=O)NC(=O)[C@H](C)NC(=O)[C@@H](NC(=O)[C@@H](NC(=O)[C@@H](N)CO)[C@@H](C)O)[C@@H](C)CC)[C@@H](C)CC)C(=O)O [3102.0451] (H-STIANSNII-OH)	14 nM
CC[C@H](C)[C@H](NC(=O)[C@H](CO)NC(=O)[C@H](CC(C)C)NC(=O)[C@H](CO)NC(=O)[C@H](CCCNC(=N)N)NC(=O)[C@H](Cc1c[nH]c2ccccc12)NC(=O)[C@@H](NC(=O)[C@@H](NC(=O)[C@H](C)N)[C@@H](C)O)[C@@H](C)CC)C(=O)O [3102.0452] (H-ATIWRSLSI-OH)	1.9 nM
CC[C@H](C)[C@H](NC(=O)[C@H](CCC(N)=O)NC(=O)[C@H](CCC(=O)O)NC(=O)[C@H](CC(=O)O)NC(=O)[C@@H](NC(=O)[C@@H](N)CCSC)[C@@H](C)O)C(=O)N[C@@H](Cc1ccc(O)cc1)C(=O)N[C@@H](C)C(=O)N[C@@H](Cc1ccccc1)C(=O)O [3102.0453] (H-MTDEQIYAF-OH)	18 nM
CC[C@H](C)[C@H](NC(=O)[C@@H](NC(=O)[C@H](CC(C)C)NC(=O)[C@H](CC(C)C)NC(=O)[C@H](CC(N)=O)NC(=O)[C@H](Cc1ccc(O)cc1)NC(=O)[C@H](CCSC)NC(=O)[C@H](CC(C)C)NC(=O)[C@@H](N)CC(C)C)[C@@H](C)O)C(=O)O [3102.0454] (H-LLMYNLLTI-OH)	72 nM
CC[C@H](C)[C@H](NC(=O)[C@@H](NC(=O)[C@@H](NC(=O)[C@H](CC(C)C)NC(=O)[C@H](CC(C)C)NC(=O)[C@H](CC(N)=O)NC(=O)[C@H](Cc1ccc(O)cc1)NC(=O)[C@H](CCSC)NC(=O)[C@@H](N)CC(C)C)[C@@H](C)O)[C@@H](C)CC)C(=O)O [3102.0455] (H-LMYNLLTII-OH)	30 nM
CC[C@H](C)[C@H](NC(=O)[C@@H](N)CCCCN)C(=O)N[C@@H](CC(N)=O)C(=O)N[C@@H](CC(N)=O)C(=O)N[C@@H](Cc1ccccc1)C(=O)N[C@@H](C)C(=O)N[C@@H](CC(N)=O)C(=O)N[C@@H](CCC(=O)O)C(=O)N[C@@H](Cc1ccccc1)C(=O)O [3102.0456] (H-KINNFANEF-OH)	2.1 nM
CC[C@H](C)[C@H](NC(=O)[C@@H](NC(=O)[C@@H](N)CCCCN)[C@@H](C)O)C(=O)N[C@@H](Cc1ccccc1)C(=O)N[C@@H](CC(C)C)C(=O)N[C@@H](CO)C(=O)N[C@@H](CCC(=O)O)C(=O)N1CCC[C@H]1C(=O)N[C@@H](Cc1ccc(O)cc1)C(=O)O [3102.0457] (H-KTIFLSEPY-OH)	2.9 nM
CSCC[C@H](NC(=O)[C@@H](NC(=O)[C@@H](N)CCCCN)[C@@H](C)O)C(=O)N[C@@H](C)C(=O)N1CCC[C@H]1C(=O)N[C@H](C(=O)N[C@@H](Cc1c[nH]cn1)C(=O)N[C@H](C(=O)N[C@@H](Cc1ccc(O)cc1)C(=O)O)[C@@H](C)O)C(C)C [3102.0458] (H-KTMAPVHTY-OH)	4.6 nM
CC[C@H](C)[C@H](NC(=O)[C@H](Cc1ccc(O)cc1)NC(=O)[C@H](CC(C)C)NC(=O)[C@H](CO)NC(=O)[C@@H](N)CCCCN)C(=O)N[C@H](C(=O)N[C@@H](CC(N)=O)C(=O)N[C@H](C(=O)N[C@@H](CC(C)C)C(=O)O)[C@@H](C)O)[C@@H](C)O [3102.0459] (H-KSLYITNTL-OH)	0.52 nM
CC[C@H](C)[C@H](NC(=O)[C@H](CO)NC(=O)[C@H](CCSC)NC(=O)[C@H](CC(C)C)NC(=O)[C@@H](N)CCCNC(=N)N)C(=O)N[C@@H](CC(N)=O)C(=O)N[C@@H](CCCNC(=N)N)C(=O)NCC(=O)N[C@@H](Cc1ccccc1)C(=O)O [3102.0465] (H-RLMSINRGF-OH)	3 nM
CC[C@H](C)[C@H](NC(=O)[C@H](Cc1ccc(O)cc1)NC(=O)[C@@H](NC(=O)[C@@H](NC(=O)[C@@H](NC(=O)[C@H](CCSC)NC(=O)[C@@H](NC(=O)[C@@H](N)CCCCN)[C@@H](C)O)[C@@H](C)O)[C@@H](C)O)C(C)C)C(=O)N[C@@H](CC(C)C)C(=O)O [3102.0466] (H-KTMTTVYIL-OH)	14 nM
CC[C@H](C)[C@H](NC(=O)[C@@H]1CCCN1C(=O)[C@H](Cc1c[nH]cn1)NC(=O)[C@H](CC(N)=O)NC(=O)[C@@H](NC(=O)[C@H](CC(=O)O)NC(=O)[C@H](CCSC)NC(=O)[C@@H](NC(=O)[C@@H](N)CO)[C@@H](C)O)C(C)C)C(=O)O [3102.0467] (H-STMDVNHPI-OH)	7.4 nM
CC(C)C[C@H](NC(=O)[C@H](CO)NC(=O)[C@H](CC(C)C)NC(=O)[C@@H](NC(=O)[C@H](CC(C)C)NC(=O)[C@H](Cc1c[nH]cn1)NC(=O)[C@H](CC(N)=O)NC(=O)[C@H](CC(C)C)NC(=O)[C@H](C)N)C(C)C)C(=O)O [3102.0469] (H-ALNHLVLSL-OH)	41 nM
CC[C@H](C)[C@H](NC(=O)[C@H](CCC(=O)O)NC(=O)[C@@H](NC(=O)[C@@H](NC(=O)[C@H](CCC(=O)O)NC(=O)[C@H](CC(N)=O)NC(=O)[C@@H](NC(=O)[C@@H](N)CCCCN)[C@@H](C)CC)C(C)C)C(C)C)C(=O)N[C@@H](Cc1ccccc1)C(=O)O [3102.0471] (H-KINEVVEIF-OH)	19 nM
CC[C@H](C)[C@H](NC(=O)[C@@H](NC(=O)[C@@H](N)CCCCN)[C@@H](C)O)C(=O)N[C@@H](CC(N)=O)C(=O)N[C@@H](Cc1ccc(O)cc1)C(=O)N[C@@H](CO)C(=O)N[C@@H](Cc1ccccc1)C(=O)N[C@@H](Cc1ccccc1)C(=O)N[C@@H](CC(C)C)C(=O)O [3102.0472] (H-KTINYSFFL-OH)	1 nM
CC[C@H](C)[C@H](NC(=O)[C@H](CO)NC(=O)[C@H](CC(C)C)NC(=O)[C@@H](NC(=O)[C@H](CO)NC(=O)[C@H](C)NC(=O)[C@H](CC(C)C)NC(=O)[C@@H](NC(=O)[C@@H](N)CCC(N)=O)[C@@H](C)CC)[C@@H](C)CC)C(=O)O [3102.0474] (H-QILASILSI-OH)	22 nM
CC[C@H](C)[C@H](NC(=O)CNC(=O)[C@H](CC(C)C)NC(=O)[C@@H](NC(=O)[C@H](CC(C)C)NC(=O)[C@H](Cc1ccc(O)cc1)NC(=O)[C@H](CCSC)NC(=O)[C@@H](NC(=O)[C@@H](N)CCSC)[C@@H](C)CC)C(C)C)C(=O)O [3102.0477] (H-MIMYLVLGI-OH)	98 nM
CC[C@H](C)[C@H](NC(=O)[C@@H](N)CCCCN)C(=O)N[C@@H](CC(N)=O)C(=O)N[C@@H](CCSC)C(=O)N[C@@H](CCC(N)=O)C(=O)N[C@H](C(=O)N[C@@H](CC(C)C)C(=O)N[C@@H](CC(C)C)C(=O)N[C@@H](Cc1ccccc1)C(=O)O)[C@@H](C)O [3102.0488] (H-KINMQTLLF-OH)	10 nM
CC[C@H](C)[C@H](NC(=O)[C@H](CC(N)=O)NC(=O)[C@H](Cc1ccccc1)NC(=O)[C@@H](NC(=O)[C@H](CCCCN)NC(=O)[C@H](Cc1ccccc1)NC(=O)[C@H](CC(N)=O)NC(=O)[C@@H](NC(=O)[C@H](C)N)[C@@H](C)CC)[C@@H](C)CC)C(=O)O [3102.0489] (H-AINFKIFNI-OH)	22 nM
CC[C@H](C)[C@H](NC(=O)[C@@H](NC(=O)[C@@H](N)CCCCN)[C@@H](C)O)C(=O)N[C@@H](Cc1ccc(O)cc1)C(=O)N[C@@H](CC(C)C)C(=O)N[C@@H](CC(C)C)C(=O)N[C@@H](CO)C(=O)N[C@@H](CC(C)C)C(=O)N[C@@H](Cc1ccccc1)C(=O)O [3102.0490] (H-KTIYLLSLF-OH)	10 nM
CC[C@H](C)[C@H](NC(=O)[C@H](CC(C)C)NC(=O)[C@H](CC(C)C)NC(=O)[C@H](Cc1ccccc1)NC(=O)[C@H](Cc1c[nH]cn1)NC(=O)[C@H](C)NC(=O)[C@H](CO)NC(=O)[C@@H](N)CCCCN)C(=O)N[C@@H](Cc1ccccc1)C(=O)O [3102.0491] (H-KSAHFLLIF-OH)	0.19 nM
CC[C@H](C)[C@H](NC(=O)[C@H](CO)NC(=O)[C@@H](NC(=O)CNC(=O)[C@H](Cc1ccccc1)NC(=O)[C@H](CO)NC(=O)[C@H](CC(N)=O)NC(=O)[C@H](CC(C)C)NC(=O)[C@@H](N)CCCCN)C(C)C)C(=O)O [3102.0496] (H-KLNSFGVSI-OH)	0.55 nM
CC[C@H](C)[C@H](NC(=O)[C@H](CCSC)NC(=O)[C@@H](NC(=O)[C@H](CO)NC(=O)[C@H](CO)NC(=O)[C@H](Cc1ccc(O)cc1)NC(=O)[C@H](CO)NC(=O)[C@H](CCSC)NC(=O)[C@@H](N)CCCCN)C(C)C)C(=O)O [3102.0497] (H-KMSYSSVMI-OH)	14 nM
CSCC[C@H](NC(=O)[C@@H](N)Cc1c[nH]cn1)C(=O)N[C@@H](CC(C)C)C(=O)N[C@@H](CCC(=O)O)C(=O)N[C@@H](Cc1ccccc1)C(=O)N[C@@H](CC(C)C)C(=O)N[C@@H](Cc1ccc(O)cc1)C(=O)N[C@@H](CO)C(=O)N[C@@H](Cc1ccccc1)C(=O)O [3102.0499] (H-HMLEFLYSF-OH)	0.3 nM
CC[C@H](C)[C@H](NC(=O)[C@@H](NC(=O)[C@H](Cc1ccc(O)cc1)NC(=O)[C@H](CC(C)C)NC(=O)[C@@H](N)CCCCN)[C@@H](C)O)C(=O)N[C@H](C(=O)N[C@@H](CO)C(=O)N[C@H](C(=O)N[C@@H](CC(C)C)C(=O)O)[C@@H](C)O)C(C)C [3102.0508] (H-KLYTIVSTL-OH)	7.1 nM
CC[C@H](C)[C@H](NC(=O)[C@H](C)NC(=O)[C@H](CCC(N)=O)NC(=O)[C@H](Cc1ccccc1)NC(=O)[C@H](C)NC(=O)[C@H](Cc1ccccc1)NC(=O)[C@H](CO)NC(=O)[C@@H](NC(=O)[C@@H](N)CCCNC(=N)N)[C@@H](C)O)C(=O)O [3102.0512] (H-RTSFAFQAI-OH)	3.8 nM
